# Measured values as given in PubChem BioAssay AID2060493 (Molecular Pharmacology Branch, DTP, NCI, 2025).
# Tested on: 616215-338-R-J1-PDC tumor spheroids, viability
# Test: Anticancer human tumor 616215-338-R-J1-PDC patient-derived colon adenocarcinoma cell line growth inhibition [GQUAD]
# Details: spheroids with HUVEC and MSC; for IC50: curve of first compound; for viability, T/C: stronger effect = lower value
# Outline: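 Viability of tumor cells grown as complex spheroids with endothelial and stromal cells, exposed to drug combinations. Top concentration at or near clinical Cmax (else 10 microM), diluted in half-log increments.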
# [1] = second compound 0.0316 µM, first compound 0.0316 µM
# [2] = second compound 0.0316 µM, first compound 0.1 µM
# [3] = second compound 0.0316 µM, first compound 0.316 µM
# [4] = second compound 0.0316 µM, first compound 1 µM
# [5] = second compound 0.0316 µM, first compound 3.16 µM
# [6] = second compound 0.0316 µM, first compound 10 µM
# [7] = second compound 0.1 µM, first compound 0.0316 µM
# [8] = second compound 0.1 µM, first compound 0.1 µM
# [9] = second compound 0.1 µM, first compound 0.316 µM
# [10] = second compound 0.1 µM, first compound 1 µM
# [11] = second compound 0.1 µM, first compound 3.16 µM
# [12] = second compound 0.1 µM, first compound 10 µM
# [13] = second compound 0.316 µM, first compound 0.0316 µM
# [14] = second compound 0.316 µM, first compound 0.1 µM
# [15] = second compound 0.316 µM, first compound 0.316 µM
# [16] = second compound 0.316 µM, first compound 1 µM
# [17] = second compound 0.316 µM, first compound 3.16 µM
# [18] = second compound 0.316 µM, first compound 10 µM
# [19] = second compound 1 µM, first compound 0.0316 µM
# [20] = second compound 1 µM, first compound 0.1 µM
# [21] = second compound 1 µM, first compound 0.316 µM
# [22] = second compound 1 µM, first compound 1 µM
# [23] = second compound 1 µM, first compound 3.16 µM
# [24] = second compound 1 µM, first compound 10 µM
# [25] = second compound 3.16 µM, first compound 0.0316 µM
# [26] = second compound 3.16 µM, first compound 0.1 µM
# [27] = second compound 3.16 µM, first compound 0.316 µM
# [28] = second compound 3.16 µM, first compound 1 µM
# [29] = second compound 3.16 µM, first compound 3.16 µM
# [30] = second compound 3.16 µM, first compound 10 µM
# [31] = second compound 10 µM, first compound 0.0316 µM
# [32] = second compound 10 µM, first compound 0.1 µM
# [33] = second compound 10 µM, first compound 0.316 µM
# [34] = second compound 10 µM, first compound 1 µM
# [35] = second compound 10 µM, first compound 3.16 µM
# [36] = second compound 10 µM, first compound 10 µM
# 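Note: spheroids exposed to agents for 7 days before readout.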
# 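Throughout, for viability, T/C: percent viability relative to DMSO vehicle control wells taken as 100%.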
structure (smiles),measurement,setting,value
C=CC(=O)N1CCN(c2nc(=O)n(-c3c(C)ccnc3C(C)C)c3nc(-c4c(O)cccc4F)c(F)cc23)C(C)C1 (stereo not drawn) + CN(C)c1ccc(Nc2c3ccc(NC(=O)CCN4CCCC4)cc3nc3cc(NC(=O)CCN4CCCC4)ccc23)cc1,IC50,second compound 0.0316 µM,> 10 µM
same,IC50,second compound 0.1 µM,> 10 µM
same,IC50,second compound 0.316 µM,> 10 µM
same,IC50,second compound 1 µM,> 10 µM
same,IC50,second compound 3.16 µM,> 10 µM
same,IC50,second compound 10 µM,> 10 µM
same,"viability, T/C",[1],96.3%
same,"viability, T/C",[2],104%
same,"viability, T/C",[3],103%
same,"viability, T/C",[4],102%
same,"viability, T/C",[5],94.2%
same,"viability, T/C",[6],72%
same,"viability, T/C",[7],110%
same,"viability, T/C",[8],89.6%
same,"viability, T/C",[9],100%
same,"viability, T/C",[10],98%
same,"viability, T/C",[11],95.4%
same,"viability, T/C",[12],64.8%
same,"viability, T/C",[13],93%
same,"viability, T/C",[14],107%
same,"viability, T/C",[15],94.9%
same,"viability, T/C",[16],103%
same,"viability, T/C",[17],89%
same,"viability, T/C",[18],70.6%
same,"viability, T/C",[19],98.7%
same,"viability, T/C",[20],100%
same,"viability, T/C",[21],102%
same,"viability, T/C",[22],91.9%
same,"viability, T/C",[23],91.6%
same,"viability, T/C",[24],69.1%
same,"viability, T/C",[25],102%
same,"viability, T/C",[26],86.7%
same,"viability, T/C",[27],94.9%
same,"viability, T/C",[28],95%
same,"viability, T/C",[29],80.2%
same,"viability, T/C",[30],63.9%
same,"viability, T/C",[31],98.1%
same,"viability, T/C",[32],85.7%
same,"viability, T/C",[33],86.3%
same,"viability, T/C",[34],86.8%
same,"viability, T/C",[35],70.3%
same,"viability, T/C",[36],55.2%
COc1ncnc(C2CC2)c1-c1ncc2cnn(Cc3ccc(-c4nc(C(F)(F)F)cn4C(C)C)cc3)c2n1 + CN(C)c1ccc(Nc2c3ccc(NC(=O)CCN4CCCC4)cc3nc3cc(NC(=O)CCN4CCCC4)ccc23)cc1,IC50,second compound 0.0316 µM,> 10 µM
same,IC50,second compound 0.1 µM,> 10 µM
same,IC50,second compound 0.316 µM,> 10 µM
same,IC50,second compound 1 µM,> 10 µM
same,IC50,second compound 3.16 µM,> 10 µM
same,IC50,second compound 10 µM,9.35 µM
same,"viability, T/C",[1],114%
same,"viability, T/C",[2],101%
same,"viability, T/C",[3],105%
same,"viability, T/C",[4],96.3%
same,"viability, T/C",[5],109%
same,"viability, T/C",[6],97.5%
same,"viability, T/C",[7],102%
same,"viability, T/C",[8],96.1%
same,"viability, T/C",[9],100%
same,"viability, T/C",[10],101%
same,"viability, T/C",[11],114%
same,"viability, T/C",[12],90.2%
same,"viability, T/C",[13],106%
same,"viability, T/C",[14],95.3%
same,"viability, T/C",[15],96.9%
same,"viability, T/C",[16],104%
same,"viability, T/C",[17],101%
same,"viability, T/C",[18],93.7%
same,"viability, T/C",[19],101%
same,"viability, T/C",[20],114%
same,"viability, T/C",[21],105%
same,"viability, T/C",[22],101%
same,"viability, T/C",[23],101%
same,"viability, T/C",[24],92.1%
same,"viability, T/C",[25],96.4%
same,"viability, T/C",[26],91.2%
same,"viability, T/C",[27],91.4%
same,"viability, T/C",[28],105%
same,"viability, T/C",[29],93.2%
same,"viability, T/C",[30],97.7%
same,"viability, T/C",[31],91.7%
same,"viability, T/C",[32],85.3%
same,"viability, T/C",[33],97.3%
same,"viability, T/C",[34],90.3%
same,"viability, T/C",[35],86.2%
same,"viability, T/C",[36],47.8%
CC(C)n1c(=O)n(C)c2cnc3cc(F)c(-c4ccc(OCCCN5CCCCC5)nc4)cc3c21 + Cc1cnc(CNC(=O)c2c(=O)c3ccc(N4CCCN(C)CC4)nc3n3c2sc2ccccc23)cn1,IC50,second compound 0.0316 µM,5.42 µM
same,IC50,second compound 0.1 µM,0.0316 µM
same,IC50,second compound 0.316 µM,< 0.0316 µM
same,IC50,second compound 1 µM,< 0.0316 µM
same,IC50,second compound 3.16 µM,< 0.0316 µM
same,IC50,second compound 10 µM,< 0.0316 µM
same,"viability, T/C",[1],82%
same,"viability, T/C",[2],62%
same,"viability, T/C",[3],47.6%
same,"viability, T/C",[4],69.5%
same,"viability, T/C",[5],64%
same,"viability, T/C",[6],33.9%
same,"viability, T/C",[7],48.3%
same,"viability, T/C",[8],48.5%
same,"viability, T/C",[9],52.2%
same,"viability, T/C",[10],34%
same,"viability, T/C",[11],36.9%
same,"viability, T/C",[12],28.8%
same,"viability, T/C",[13],40.6%
same,"viability, T/C",[14],43.3%
same,"viability, T/C",[15],53.8%
same,"viability, T/C",[16],38.5%
same,"viability, T/C",[17],46.8%
same,"viability, T/C",[18],13.4%
same,"viability, T/C",[19],28.3%
same,"viability, T/C",[20],36.1%
same,"viability, T/C",[21],29.9%
same,"viability, T/C",[22],28.2%
same,"viability, T/C",[23],34.3%
same,"viability, T/C",[24],30.5%
same,"viability, T/C",[25],22.5%
same,"viability, T/C",[26],25.6%
same,"viability, T/C",[27],32.1%
same,"viability, T/C",[28],23.2%
same,"viability, T/C",[29],26.9%
same,"viability, T/C",[30],8.45%
same,"viability, T/C",[31],31.1%
same,"viability, T/C",[32],41.4%
same,"viability, T/C",[33],19.9%
same,"viability, T/C",[34],31.9%
same,"viability, T/C",[35],24.1%
same,"viability, T/C",[36],19.2%
Nc1ccn(C2OC(CO)C(O)C2(F)F)c(=O)n1 (stereo not drawn) + CN(C)c1ccc(Nc2c3ccc(NC(=O)CCN4CCCC4)cc3nc3cc(NC(=O)CCN4CCCC4)ccc23)cc1,IC50,second compound 0.0316 µM,< 0.0316 µM
same,IC50,second compound 0.1 µM,< 0.0316 µM
same,IC50,second compound 0.316 µM,< 0.0316 µM
same,IC50,second compound 1 µM,< 0.0316 µM
same,IC50,second compound 3.16 µM,< 0.0316 µM
same,IC50,second compound 10 µM,< 0.0316 µM
same,"viability, T/C",[1],39.4%
same,"viability, T/C",[2],18.3%
same,"viability, T/C",[3],11.6%
same,"viability, T/C",[4],9.94%
same,"viability, T/C",[5],10.2%
same,"viability, T/C",[6],11.1%
same,"viability, T/C",[7],39.2%
same,"viability, T/C",[8],14.7%
same,"viability, T/C",[9],12%
same,"viability, T/C",[10],9.37%
same,"viability, T/C",[11],10.9%
same,"viability, T/C",[12],8.91%
same,"viability, T/C",[13],43.8%
same,"viability, T/C",[14],20.2%
same,"viability, T/C",[15],11.3%
same,"viability, T/C",[16],7.36%
same,"viability, T/C",[17],8.69%
same,"viability, T/C",[18],10.9%
same,"viability, T/C",[19],34.6%
same,"viability, T/C",[20],19.2%
same,"viability, T/C",[21],9.69%
same,"viability, T/C",[22],9.64%
same,"viability, T/C",[23],11.7%
same,"viability, T/C",[24],14.1%
same,"viability, T/C",[25],45.3%
same,"viability, T/C",[26],26%
same,"viability, T/C",[27],12.3%
same,"viability, T/C",[28],8.37%
same,"viability, T/C",[29],11.2%
same,"viability, T/C",[30],9.17%
same,"viability, T/C",[31],30.2%
same,"viability, T/C",[32],19.6%
same,"viability, T/C",[33],7.93%
same,"viability, T/C",[34],6.14%
same,"viability, T/C",[35],8.89%
same,"viability, T/C",[36],8.2%
